Key:
LLC cells [1] = experiment: Tumor volume, combination of soybean PC and 5-FU, LLC cancer-bearing mice (Example 12); format: in vivo, mouse; conditions: soybean PC 3 mg/kg i.v. daily day 7 to 20, 5-FU 20 mg/kg i.p. day 7 and 14, volume to day 21
Method: LLC cells (1×10^6 cells in 100 μL of PBS per animal) were subcutaneously injected into C57BL/6NCrSlc mice aged 8 weeks (females, SLC, Inc.) to generate cancer-bearing mice. The mice were assigned to 4 groups: a soybean PC group, a 5-FU group, a soybean PC plus 5-FU group, and a control group (vehicle administration group) (3 animals per group). For the soybean PC group and the soybean PC plus 5-FU group, in the same manner as in Example 1, 3 mg/kg (100 μL) of the soybean PC was administered once daily via the mouse tail vein for […] from day 7 to day 20 post-cancer cell inoculation. For the 5-FU group and the soybean PC plus 5-FU group, 5-FU (Kyowa Hakko Kirin Co., Ltd.) was intraperitoneally administered at a dose of 20 mg/kg on day 7 and day 14 post-cancer cell inoculation. Tumor volume was measured on day 7, day 14 and day 21 post-cancer cell inoculation. The tumor volume was calculated by the following formula: length×width×height×0.5.

LLC cells [2] = experiment: Various phosphatidylcholines: intratumoral lymphocyte infiltration, LLC cancer-bearing mice (Example 9); format: in vivo, mouse; conditions: LLC tumor; PC 3 mg/kg i.v. once daily day 7 to 13; harvested day 14; CD4- and CD8-positive cells
Excerpt: The PCs of Group A were dioctanoyl phosphatidylcholine (Avanti POLAR LIPIDS), dimyristoyl phosphatidylcholine (Nippon Fine Chemical), distearoyl phosphatidylcholine (Nippon Fine Chemical), dioleoyl phosphatidylcholine (Nippon Fine Chemical) and dilinoleoyl phosphatidylcholine (Avanti POLAR LIPIDS). The PCs of Group B were (1-palmitoyl-2-myristoyl) phosphatidylcholine (Avanti POLAR LIPIDS) and (1-palmitoyl-2-oleoyl) phosphatidylcholine (Avanti POLAR LIPIDS).
In the same manner as in Example 1, LLC cells ([…] cells in 100 μL of PBS per animal) were subcutaneously injected into C57BL/6NCrSlc mice aged 8 weeks (females, SLC, Inc.) to generate cancer-bearing mice. For 7 consecutive days from day 7 to day 13 post-cancer cell inoculation, the PCs indicated above were administered at a dose of 3 mg/kg (100 μL) once daily via the mouse tail vein. The vehicle was administered to the mice of the control group. On the day following the final administration (day 14 post-inoculation), the tumors were harvested from the mice. In the same manner as in Example 1, tumor tissue sections were prepared, tumor vasculature was observed, and intratumoral lymphocyte infiltration was examined.

[3] = tested on: human umbilical vein endothelial cells (HUVECs); experiment: Tubulogenesis of cultured HUVECs on Matrigel with VEGF (Examples 13 and 14); format: cell-based; conditions: HUVEC on Matrigel, Example 14
Method: Each well of a 48-well plate was coated with 200 μL of Matrigel (BD biosciences), and human umbilical vein endothelial cells (HUVECs; Kurabo Industries Ltd.) were seeded at 5×10^4 cells/200 μL/well and cultured. For the culture, HuMedia-EB2 medium (Kurabo Industries, Ltd.) supplemented with 1% FCS was used. VEGF (recombinant human VEGF165, Peprotech) was added at a final concentration of 10 ng/mL to the culture medium to induce tubulogenesis of the vascular endothelial cells. Soybean PC was also added at 10 μM concomitantly with VEGF. At 12 to 16 hours after the start of the culture, the cells were photographed under a microscope. In addition, Hoechst (Boehringer Ingelheim) was added to stain cell nuclei, and newly formed blood vessels were observed. The wells not containing the soybean PC were used as a control.
The same experiment as in Example 12 was performed using soybean PC and other 8 types of PCs. The PCs were classified as Group A or B as with Example 8. The PCs used were as follows (see Table 2).

intratumoral vessels = experiment: Phosphatidylcholine administration to lysophosphatidic acid receptor 4-deficient mice; format: in vivo, mouse
Excerpt: Lysophosphatidic acid is enzymatically synthesized from lysophosphatidylcholine, which is produced by enzymatic decomposition of phosphatidylcholine. Considering this, there was a possibility that the newly discovered effects of phosphatidylcholine might be underlain by the mechanism that the administered phosphatidylcholine undergoes in vivo decomposition into lysophosphatidic acid, which activates a lysophosphatidic acid receptor and thereby produces the effects. However, the structural improvement of intratumoral vessels and the promotion of immune cell infiltration after phosphatidylcholine administration were not observed after lysophosphatidyicholine administration (see Reference Example 1). […] Therefore, the effects of phosphatidylcholine were proven not to be mediated by a lysophosphatidic acid receptor.

For `O=c1[nH]cc(F)c(=O)[nH]1` [5-FU], which “tumor volume (tumor growth) as compared with the control group” value (LLC cells [1]) is on record?
The value was “tumor growth inhibition”.

With `CCCCCCCCCCCCCCCC(=O)OC[C@H](COP(=O)([O-])OCC[N+](C)(C)C)OC(=O)CCCCCCCCCCCCC` [(1-palmitoyl-2-myristoyl) phosphatidylcholine] as the compound, how does the “Lymphocyte Infiltration” value (LLC cells [2]) read?
Its value is “yes”.

And the Vein-like morphological change [3]?
The Vein-like morphological change was “yes”.

Which “Lymphocyte Infiltration” value (LLC cells [2]) does the source give for `CCCCCCCC/C=C\CCCCCCCC(=O)O[C@H](COC(=O)CCCCCCCCCCCCCCC)COP(=O)([O-])OCC[N+](C)(C)C` [(1-palmitoyl-2-oleoyl) phosphatidylcholine] here?
The value was “yes”.

And the Vein-like morphological change [3]?
The Vein-like morphological change was “yes”.

How did the Vein-like morphological change [3] turn out when `CC/C=C\C/C=C\C/C=C\C/C=C\C/C=C\C/C=C\CCC(=O)OC[C@H](COP(=O)([O-])OCC[N+](C)(C)C)OC(=O)CC/C=C\C/C=C\C/C=C\C/C=C\C/C=C\C/C=C\CC` [Didocosahexaenoyl phosphatidylcholine, didocosahexaenoyl phosphatidylcholine] was run?
Its Vein-like morphological change is “yes”.

With `CCCCC/C=C\C/C=C\CCCCCCCC(=O)OC[C@H](COP(=O)([O-])OCC[N+](C)(C)C)OC(=O)CCCCCCC/C=C\C/C=C\CCCCC` [Dilinoleoyl phosphatidylcholine, dilinoleoyl phosphatidylcholine] as the compound, how does the “Lymphocyte Infiltration” value (LLC cells [2]) read?
Its value is “yes”.

And the Vein-like morphological change [3]?
Its Vein-like morphological change is “yes”.

Which “Lymphocyte Infiltration” value (LLC cells [2]) does the source give for `CCCCCCCCCCCCCC(=O)OC[C@H](COP(=O)([O-])OCC[N+](C)(C)C)OC(=O)CCCCCCCCCCCCC` [Dimyristoyl phosphatidylcholine, dimyristoyl phosphatidylcholine] here?
The value was “yes”.

What about the Vein-like morphological change [3] of the same compound?
The Vein-like morphological change was “yes”.

Which results are given for `CCCCCCCC(=O)OCC(COP(=O)([O-])OCC[N+](C)(C)C)OC(=O)CCCCCCC` (stereo not drawn) [Dioctanoyl phosphatidylcholine, dioctanoyl phosphatidylcholine]?
Lymphocyte Infiltration (LLC cells [2]): yes; Vein-like morphological change [3]: yes

Which results are given for `CCCCCCCC/C=C\CCCCCCCC(=O)OC[C@H](COP(=O)([O-])OCC[N+](C)(C)C)OC(=O)CCCCCCC/C=C\CCCCCCCC` [Dioleoyl phosphatidylcholine, dioleoyl phosphatidylcholine]?
Lymphocyte Infiltration (LLC cells [2]): yes; Vein-like morphological change [3]: yes

Which results are given for `CCCCCCCCCCCCCCCCCC(=O)OC[C@H](COP(=O)([O-])OCC[N+](C)(C)C)OC(=O)CCCCCCCCCCCCCCCCC` [Distearoyl phosphatidylcholine, distearoyl phosphatidylcholine]?
Lymphocyte Infiltration (LLC cells [2]): yes; Vein-like morphological change [3]: yes

What does the source list for phosphatidylcholine?
immune cell infiltration (intratumoral vessels): promoted immune cell infiltration; structure of intratumoral vessels (intratumoral vessels): improved the structure of intratumoral vessels

— patent US12447165B2, “Intratumoral vein-formation promoting agent” (OSAKA UNIVERSITY, priority 2016, dated 2025)
